A word on the Ki: it is a dissociation constant, usually derived from enzyme kinetics or from competition with a known ligand. In general, IC50 refers to the concentration at which inhibition is half-maximal. The term CC50 denotes the concentration at which the toxic effect on the cells reaches its halfway point.

Where two headings read alike, the source gives them in different places. Bounds are passed on as bounds.

Series [1] addresses T1, TbrPDEB1 (Trypanosoma brucei, UniProt Q8WQX9).
T1 construct: The TbrPDEB1 catalytic domain phosphodiesterase activity assays were conducted based on a method reported by Sijm et al
T1 sequence (Q8WQX9 565-918 limits assumed): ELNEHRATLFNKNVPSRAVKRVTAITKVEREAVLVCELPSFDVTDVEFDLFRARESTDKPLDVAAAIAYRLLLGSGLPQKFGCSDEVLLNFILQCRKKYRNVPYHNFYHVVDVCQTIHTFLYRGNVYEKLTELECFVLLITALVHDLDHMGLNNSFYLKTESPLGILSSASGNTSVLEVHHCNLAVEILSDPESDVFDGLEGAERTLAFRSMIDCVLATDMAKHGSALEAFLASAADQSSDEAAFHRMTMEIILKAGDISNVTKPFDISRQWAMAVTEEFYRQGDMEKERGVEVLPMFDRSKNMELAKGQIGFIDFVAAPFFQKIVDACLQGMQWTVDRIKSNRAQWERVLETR
Kind of series: TbrPDEB1 catalytic domain phosphodiesterase activity assay (PDELight HTS cAMP kit). In kind it is biochemical. To be noted: for Ki: full dose-response, mean ± S.E.M.; for inhibition at 10 µM / TbrPDEB1 (% inh.): single point assay at 10 μM inhibitor; for inhibition at 10 µM: read-out: TbrPDEB1 (% inh.). Here is the method:
The TbrPDEB1 catalytic domain phosphodiesterase activity assays were conducted based on a method reported by Sijm et al. ([2019]) with minor adaptations (Sijm et al., [2019]). The PDELight™ HTS cAMP phosphodiesterase Kit (Lonza, Walkersville, USA) was performed at 25°C in non-binding, low volume 384-well plates (Corning, Kennebunk, ME, USA). […] Single concentration measurements were made at 10 μM inhibitor concentration (triplo measurements/assay, n = 2). Dose-response curves were made in the range 100 μM−10 pM (triplo measurements/assay, n = 3). Compounds were diluted in DMSO (final in-test concentration 1%). Inhibitor dilutions (2.5 μL) were transferred to the 384-well plates, 2.5 μL of PDE in stimulation buffer was added and mixed, 5 μL of cAMP (at 2 × Km up to 20 μM) added and the assay mixture was incubated for 20 min at 300 rpm. […] Then, 5 μL of Lonza Detection reagent (diluted to 80% with reaction buffer) was added and the reaction incubated for 10 min at 300 rpm. Luminescence was read with a Victor3 luminometer using a 0.1 s/well program.
The Ki values of the inhibitors analyzed are represented as the mean of at least three independent experiments with the associated standard error of the mean (S.E.M.).

Series [2] has as its system T.b. brucei Squib-427 strain. As to the kind of experiment: Antitrypanosomal phenotypic cellular assay (resazurin). Format: cell-based. To be noted: Trypanosoma brucei; in vitro, 72 h, mean ± S.E.M. As to the method:
(§1) The phenotypic cellular assays were conducted as previously reported by Blaazer et al. (Blaazer et al., [2018]).
For the antitrypanosomal assay, T.b. brucei Squib-427 strain (suramin-sensitive) was cultured at 37°C and 5% CO2 in HMI-9 medium supplemented with 10% fetal calf serum (FCS). Approximately 1.5 × 10^4 trypomastigotes were added to each well and parasite growth was assessed after 72 h at 37°C by adding resazurin. Viability was assessed fluorimetrically 24 h after addition of resazurin. Fluorescence was measured (excitation 550 nm, emission 590 nm) and the results were expressed as percentage reduction in viability compared to control.
For orientation: Alamar Blue is a resazurin reagent that responds to reducing activity.

Series [3] in a line: Cellular cytotoxicity assay (resazurin). In kind it is cell-based. To be noted: human. As to the method: as §1
For the cellular cytotoxicity assay, MRC-5 SV2 cells, originally from a human diploid lung cell line, were cultivated in MEM supplemented with L-glutamine (20 mM), 16.5 mM sodium hydrogen carbonate and 5% FCS. For the assay, 10^4 MRC-5 cells/well were seeded onto the test plates containing the pre-diluted sample and incubated at 37°C and 5% CO2 for 72 h. Cell viability was assessed fluorimetrically 4 h after the addition of resazurin. Fluorescence was measured (excitation 550 nm, emission 590 nm) and the results were expressed as percentage reduction in cell viability compared to controls.

Series [4] has as its system T.b. brucei Squib-427 strain. Also noted: method as in Blaazer et al. (2018). To be noted: in vitro; ref Blaazer et al. (2018); cited from earlier work.
For another series, the system named is MRC-5 SV2 cells. Also noted: method as in Blaazer et al. (2018). To be noted: ref Blaazer et al. (2018); cited from earlier work.
The subject of a further series is hPDE4B1. More on the design: method as in Blaazer et al. (2018). To be noted: ref Blaazer et al. (2018), cited from earlier work.
Series [5] deals with T1, TbrPDEB1. To be noted: ref Blaazer et al. (2018); cited from earlier work.
Another series concerns TbrPDEB2. Also noted: method as in earlier work. To be noted: ref De Koning et al., 2012, Orrling et al., Veerman et al., 2016; cited from earlier work.

As for `CCCCNC(=O)c1cccc(Oc2cc(C3=NN(C(C)C)C(=O)[C@@H]4CC=CC[C@H]34)ccc2OC)n1` (relative stereo) [3s, N-Butyl-6-(5-(cis-3-isopropyl-4-oxo-3,4,4a,5,8,8a-hexahydrophthalazin-1-yl)-2-methoxyphenoxy)picolinamide], on TbrPDEB1 [1], the affinity corresponds to a Ki of 1.3 ± 0.3 µM and the inhibition at 10 µM was over 50%. The molecule further showed an IC50 in series [2] of over 64 µM. Moreover, the CC50 at 72 h in series [3] was over 64 µM.

Consider `COc1ccc(C2=NN(C(C)C)C(=O)C3CC=CCC23)cc1-c1ccc(C(=O)NCC(N)=O)cc1` (stereo not shown) [compound 1], for which, in series [4], the IC50 is 6.3 µM. In the series with MRC-5 SV2 cells, the CC50 is 35 µM. Also, the “selectivity for TbrPDEB1 over hPDE4” value in the series with hPDE4B1 (from Ki values) is “more than 10 fold”. The Ki on hPDE4B1 (hPDE4B1 in Figure 1, read-out: hPDE4 Ki) is 1.9 µM; at TbrPDEB1 [5] it was 0.1 µM.

Regarding `COc1ccc(C2=NN(C3CCCCCC3)C(=O)[C@@H]3CC=CC[C@H]23)cc1OCCCCOc1ccc(-c2nn[nH]n2)cc1` [NPD-001], in the series on TbrPDEB2, the IC50 is 0.0124 µM.

As to `COc1ccc(C2=NN(C(C)C)C(=O)[C@H]3CC=CC[C@@H]23)cc1Oc1ccc(Cn2ccnc2)cn1` (relative stereo) [2h, cis-4-(3-((5-((1H-Imidazol-1-yl)methyl)pyridin-2-yl)oxy)-4-methoxyphenyl)-2-isopropyl-4a,5,8,8a-tetrahydrophthalazin-1(2H)-one], on TbrPDEB1 [1], affinity was put at a Ki of 1.3 ± 0.2 µM and the inhibition at 10 µM is about 50%. In series [2], this molecule gave an IC50 of 7.9 ± 8 µM. In series [3], half-maximal cytotoxicity (CC50 at 72 h) was put at 31 ± 8 µM.

Take `COC(=O)c1cnc(Oc2cc(C3=NN(C(C)C)C(=O)[C@@H]4CC=CC[C@H]34)ccc2OC)cn1` (relative stereo) [2d, Methyl 5-(5-(cis-3-isopropyl-4-oxo-3,4,4a,5,8,8a-hexahydrophthalazin-1-yl)-2-methoxyphenoxy)pyrazine-2-carboxylate]: at TbrPDEB1 [1], the Ki amounted to 0.6 ± 0.2 µM and the inhibition at 10 µM was about 50%. This molecule came in with an IC50 in series [2] of 16 ± 10 µM. This molecule showed a CC50 at 72 h in series [3] of over 64 µM.

Turning to `Cc1ccc(C(=O)Nc2ccc(S(=O)(=O)O)c3cc(S(=O)(=O)O)cc(S(=O)(=O)O)c23)cc1NC(=O)c1cccc(NC(=O)Nc2cccc(C(=O)Nc3cc(C(=O)Nc4ccc(S(=O)(=O)O)c5cc(S(=O)(=O)O)cc(S(=O)(=O)O)c45)ccc3C)c2)c1` [suramin, reference compound], the IC50 in series [2] amounted to 0.04 ± 0.02 µM.

On to `COc1ccc(C2=NN(C(C)C)C(=O)[C@@H]3CC=CC[C@H]23)cc1Oc1cccc(C(=O)NCc2ccco2)n1` (relative stereo) [3w, N-(Furan-2-ylmethyl)-6-(5-(cis-3-isopropyl-4-oxo-3,4,4a,5,8,8a-hexahydrophthalazin-1-yl)-2-methoxyphenoxy)picolinamide], for which, on TbrPDEB1 [1], the Ki worked out at 1 ± 0.2 µM and the inhibition at 10 µM was over 50%. Also, 25 ± 20 µM corresponded to half-maximal inhibition in series [2] (IC50). Further, in series [3], the cytotoxic concentration (CC50) at 72 h is over 64 µM.

Turning to `COc1ccc(C2=NN(C(C)C)C(=O)[C@@H]3CC=CC[C@H]23)cc1Oc1cccc(C(N)=O)n1` (relative stereo) [3l, 6-(5-(cis-3-Isopropyl-4-oxo-3,4,4a,5,8,8a-hexahydrophthalazin-1-yl)-2-methoxyphenoxy)picolinamide], on TbrPDEB1 [1], the Ki is 0.8 ± 0.2 µM and the inhibition at 10 µM is at least 50%. For the same molecule, inhibition in series [2] was half-maximal at 16 ± 10 µM (IC50). In series [3], this molecule came in with a CC50 at 72 h of over 64 µM.

For `COc1ccc(C2=NN(C(C)C)C(=O)[C@H]3CC=CC[C@@H]23)cc1Oc1nc2ccccc2s1` (relative stereo) [2p, cis-4-(3-(Benzo[d]thiazol-2-yloxy)-4-methoxyphenyl)-2-isopropyl-4a,5,8,8a-tetrahydrophthalazin-1(2H)-one], the “TbrPDEB1 (% inh.)” value on TbrPDEB1 [1] is “No inhibition”.

Regarding `CCOC(=O)c1cnc(Oc2cc(C3=NN(C(C)C)C(=O)[C@@H]4CC=CC[C@H]34)ccc2OC)s1` (relative stereo) [2b, Ethyl 2-(5-(cis-3-isopropyl-4-oxo-3,4,4a,5,8,8a-hexahydrophthalazin-1-yl)-2-methoxyphenoxy)thiazole-5-carboxylate], the inhibition at 10 µM on TbrPDEB1 [1] was 11%.

With `COc1ccc(C2=NN(C(C)C)C(=O)[C@@H]3CC=CC[C@H]23)cc1Oc1ccc(C(N)=O)cn1` (relative stereo) [3k, 6-(5-(cis-3-Isopropyl-4-oxo-3,4,4a,5,8,8a-hexahydrophthalazin-1-yl)-2-methoxyphenoxy)nicotinamide], the “TbrPDEB1 (% inh.)” value on TbrPDEB1 [1] is recorded as “No inhibition”.

`COC(=O)c1ccc(Oc2cc(C3=NN(C(C)C)C(=O)[C@@H]4CC=CC[C@H]34)ccc2OC)nc1` (relative stereo) [3c, Methyl 6-(5-(cis-3-isopropyl-4-oxo-3,4,4a,5,8,8a-hexahydrophthalazin-1-yl)-2-methoxyphenoxy)nicotinate]: on TbrPDEB1 [1], the Ki is 0.8 ± 0.2 µM and the inhibition at 10 µM was at least 50%. Also, it took 7.9 ± 8 µM to reach half-maximal inhibition in series [2] (IC50). For the same molecule, the CC50 at 72 h in series [3] is over 64 µM.

The record behind these values is paper PMC7859335, “Discovery of Diaryl Ether Substituted Tetrahydrophthalazinones as TbrPDEB1 Inhibitors Following Structure-Based Virtual Screening” (Frontiers in Chemistry, 2021).
